27 compounds from patent US7410975B2, “Small molecule toll-like receptor (TLR) antagonists” (Coley Pharmaceutical Group, Inc., priority 2003, dated 2008) can be followed below.

Where a name gives a salt, the structure may show the parent alone.

The first test concerns the target T1, human TLR9 (hTLR9) (Homo sapiens, UniProt Q9NR96).
T1 construct: expressed in transfected cells
T1 sequence (Q9NR96 26-1032): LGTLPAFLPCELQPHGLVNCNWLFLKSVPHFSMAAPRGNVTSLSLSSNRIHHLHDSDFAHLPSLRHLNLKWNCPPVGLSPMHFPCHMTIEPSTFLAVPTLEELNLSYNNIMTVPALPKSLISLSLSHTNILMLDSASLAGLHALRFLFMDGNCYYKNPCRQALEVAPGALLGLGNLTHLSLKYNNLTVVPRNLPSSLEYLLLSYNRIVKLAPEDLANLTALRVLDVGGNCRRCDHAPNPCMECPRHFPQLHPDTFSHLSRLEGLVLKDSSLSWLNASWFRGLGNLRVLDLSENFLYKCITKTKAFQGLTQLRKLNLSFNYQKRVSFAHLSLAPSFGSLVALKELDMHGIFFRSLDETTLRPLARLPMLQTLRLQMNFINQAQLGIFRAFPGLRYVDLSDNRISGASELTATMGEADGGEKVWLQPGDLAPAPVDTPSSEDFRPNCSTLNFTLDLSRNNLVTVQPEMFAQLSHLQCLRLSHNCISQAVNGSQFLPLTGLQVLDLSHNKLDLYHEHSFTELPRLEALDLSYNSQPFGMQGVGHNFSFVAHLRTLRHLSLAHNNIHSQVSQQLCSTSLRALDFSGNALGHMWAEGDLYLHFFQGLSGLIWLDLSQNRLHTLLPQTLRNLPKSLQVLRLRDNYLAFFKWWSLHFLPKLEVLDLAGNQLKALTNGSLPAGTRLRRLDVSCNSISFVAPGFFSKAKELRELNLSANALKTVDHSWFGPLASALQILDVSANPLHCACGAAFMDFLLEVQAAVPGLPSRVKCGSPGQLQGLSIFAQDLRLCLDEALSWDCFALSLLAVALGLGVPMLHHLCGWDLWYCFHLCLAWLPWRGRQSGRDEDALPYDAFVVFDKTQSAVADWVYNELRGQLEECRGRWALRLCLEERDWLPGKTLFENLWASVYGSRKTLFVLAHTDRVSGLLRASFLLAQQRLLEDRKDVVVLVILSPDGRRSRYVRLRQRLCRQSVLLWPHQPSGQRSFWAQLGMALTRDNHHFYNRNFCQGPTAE
The test is described as follows: Antagonist screen, hTLR9-NFκB-293 cells, 6× NF-κB-luciferase reporter, with EC50 of CpG ODN 2006. It is filed as cell-based. To be noted: FIG. 1, graph. The protocol: Candidate small molecules for initial screening were obtained from a commercially available library of 880 off-patent small molecules selected for structural diversity and proven bioavailability in humans (Prestwick Chemical Library). […] Results were measured as fold induction over baseline luciferase activity measured in the absence of ODN 2006 and compared to fold induction over baseline in the presence of the EC50 concentration of ODN 2006 alone. […] Additional screening was performed in like manner using additional small molecules selected from another library or specifically prepared for this purpose.
The method is described in greater detail as follows. The cells for each individual cell clone (hTLR3-NFκB-293, hTLR7-NFκB-293, hTLR8-NFκB-293 and hTLR9-NFκB-293) were counted and seeded one day before the stimulation at 1.5×10^4 cells per well in 96-well cell culture plates. To become adherent the cells were incubated after seeding overnight at 37° C. in 5% CO2 humidified air.
The screen for each compound was performed at the same time for all of the receptors TLR3, TLR7, TLR8 and TLR9. Up to fifteen test compounds, each assayed in duplicate at each of three different final concentrations (0.5 μg/ml, 5 μg/ml, and 50 μg/ml), were used for 16 h cell stimulation on a single multiwell culture plate. A 4× final concentration master plate was created to prepare the different test compounds before they were added to the cells.
Controls were added as duplicates individually for each cell clone on the cell culture plate. Positive controls were used as follows (final concentrations): 50 μg/ml poly(I:C) for hTLR3-NFκB-293; 8 μM resiquimod (R848) for hTLR7-NFκB-293; 30 μM R848 for hTLR8-NFκB-293; and 2.5 μM CpG-ODN 2006 for hTLR9-NFκB-293. Media alone was used as negative control. After addition of controls and small molecules, the cell clones were additionally stimulated with the EC50 concentration of the appropriate receptor-specific ligand.
The mean value of wells H2 and H5 (each with cells and EC50 concentration of the appropriate receptor-specific ligand) divided by the mean of wells H3 and H6 (each with cells alone) yielded the baseline response (i.e., fold induction of luciferase activity) to EC50 concentration of the appropriate receptor-specific ligand.
After 16 h stimulation the supernatant was removed and the cells treated with lysis buffer and stored at −80° C. before measuring.
For each screen result a graphical documentation was performed.
The baseline result (measured with addition of the EC50 concentration of the receptor-specific ligand) for each cell culture plate was measured as described above. Antagonistic effects were measured by down regulation compared to the baseline. Antagonists were scored as follows: • 13: compounds for which there was clear down regulation at 0.5 μg/ml, 5 μg/ml, and 50 μg/ml; • 12: compounds for which there was clear down regulation at 5 μg/ml and 50 μg/ml; • 11: compounds for which there was clear down regulation only at 50 μg/ml; • —: compounds for which there was no clear down regulation even at 50 μg/ml. Agonists
Take `COc1ccc2c(c1)[nH]c1c(C)nccc12.Cl` [compound 613, harmine hydrochloride]: the “inhibition of TLR9 signaling in response to CpG ODN 2006 (FIG. 1)” value is “concentration-dependent inhibition”.

In the case of `OCc1cc2c(cn1)[nH]c1ccccc12` [compound 878, 3-hydroxymethyl-beta-carboline], the “inhibition of TLR9 signaling in response to CpG ODN 2006 (FIG. 1)” value is recorded as “concentration-dependent inhibition”.

The same test, now with this note: compound at 0.5, 5, 50 μg/ml; EC50 concentration of CpG ODN 2006; 16 h; NF-κB-luciferase.
In the case of `COC(=O)[C@H]1[C@H]2C[C@@H]3c4[nH]c5cc(OC)ccc5c4CCN3C[C@H]2C[C@@H](OC(=O)/C=C/c2cc(OC)c(OC)c(OC)c2)[C@@H]1OC` [compound 568, Rescinnamin], the “hTLR9 (inhibitory effect, antagonist score)” value was 12 (compounds for which there was clear down regulation at 5 μg/ml and 50 μg/ml).

Consider `CC(=O)c1ccc2c(c1)N(CCCN(C)C)c1ccccc1S2.O=C(O)/C=C\C(=O)O` [compound 576, Acetopromazinemaleate salt], for which the “hTLR9 (inhibitory effect, antagonist score)” value was 12 (compounds for which there was clear down regulation at 5 μg/ml and 50 μg/ml).

As for `COC(=O)C1=CO[C@@H](C)[C@@H]2CN3CCc4c([nH]c5ccccc45)[C@@H]3C[C@H]12` [compound 593, Tetrahydroalstonine], the “hTLR9 (inhibitory effect, antagonist score)” value is recorded as 11 (compounds for which there was clear down regulation only at 50 μg/ml).

Consider `CC[C@]12CCCN3CCc4c(n(c5ccccc45)C(=O)C1)[C@@H]32` [compound 607, Eburnamonine], for which the “hTLR9 (inhibitory effect, antagonist score)” value was “— (compounds for which there was no clear down regulation even at 50 μg/ml)”.

In the case of `Cc1nccc2c1[nH]c1cc(O)ccc12.Cl` [compound 612, Harmol hydrochloride monohydrate], the “hTLR9 (inhibitory effect, antagonist score)” value was 12 (compounds for which there was clear down regulation at 5 μg/ml and 50 μg/ml).

Take `COc1ccc2c(c1)[nH]c1c(C)nccc12.Cl` [compound 613, harmine hydrochloride]: the “hTLR9 (inhibitory effect, antagonist score)” value is 13 (compounds for which there was clear down regulation at 0.5 μg/ml, 5 μg/ml, and 50 μg/ml).

Regarding `Cc1c2ccncc2c(C)c2c1[nH]c1ccccc12` [compound 614, Ellipticine], the “hTLR9 (inhibitory effect, antagonist score)” value was 13 (compounds for which there was clear down regulation at 0.5 μg/ml, 5 μg/ml, and 50 μg/ml).

Consider `Cc1nccc2c1[nH]c1ccccc12` [compound 620, Harmane hydrochloride], for which the “hTLR9 (inhibitory effect, antagonist score)” value is 12 (compounds for which there was clear down regulation at 5 μg/ml and 50 μg/ml).

With `COc1ccc2[nH]c3c(c2c1)CCN=C3C` [compound 621, Methoxy-6-harmalan], the “hTLR9 (inhibitory effect, antagonist score)” value is 12 (compounds for which there was clear down regulation at 5 μg/ml and 50 μg/ml).

As to `CC[C@]12CCCN3CCc4c(n(c5ccccc45)[C@](O)(C(=O)OC)C1)[C@@H]32` [compound 636, Epivincamine], the “hTLR9 (inhibitory effect, antagonist score)” value is reported as “— (compounds for which there was no clear down regulation even at 50 μg/ml)”.

On to `Cl.Cl.c1ccc2c3c([nH]c2c1)C1C2CCC(C4CCCNC42)N1CC3` (centres unmarked) [compound 685, Nitrarine dihydorchloride], for which the “hTLR9 (inhibitory effect, antagonist score)” value is on record as 11 (compounds for which there was clear down regulation only at 50 μg/ml).

Consider `CN(C)CCCN1c2ccccc2Sc2ccccc21.Cl` [compound 693, Promazinehydrochloride], for which the “hTLR9 (inhibitory effect, antagonist score)” value was 12 (compounds for which there was clear down regulation at 5 μg/ml and 50 μg/ml).

Turning to `CN1CCC(OC(c2ccccc2)c2ccccc2)CC1.Cl` [compound 707, Diphenylpyralinehydrochloride], the “hTLR9 (inhibitory effect, antagonist score)” value was 12 (compounds for which there was clear down regulation at 5 μg/ml and 50 μg/ml).

Consider `CCCC(C(=O)OCCN(CC)CC)(c1ccccc1)c1ccccc1.Cl` [compound 778, Proadifen hydrochloride], for which the “hTLR9 (inhibitory effect, antagonist score)” value is 11 (compounds for which there was clear down regulation only at 50 μg/ml).

On to `Cl.Clc1ccc(C(OCCN2CCCCC2)c2ccccc2)cc1` (centres unmarked) [compound 793, Cloperastinehydrochloride], for which the “hTLR9 (inhibitory effect, antagonist score)” value is 12 (compounds for which there was clear down regulation at 5 μg/ml and 50 μg/ml).

Regarding `COc1ccc2c(c1)N(CC(C)CN(C)C)c1ccccc1S2.O=C(O)/C=C\C(=O)O` (centres unmarked) [compound 797, Methotrimeprazinemaleat salt], the “hTLR9 (inhibitory effect, antagonist score)” value is reported as “— (compounds for which there was no clear down regulation even at 50 μg/ml)”.

Consider `CS(=O)(=O)O.OC(CCN1CCCCC1)(c1ccccc1)c1ccccc1` [compound 799, Pridinolmethanesulfonate salt], for which the “hTLR9 (inhibitory effect, antagonist score)” value is recorded as 11 (compounds for which there was clear down regulation only at 50 μg/ml).

Consider `C[N+]12CCC(CC1)C(OC(=O)C(O)(c1ccccc1)c1ccccc1)C2.[Br-]` (centres unmarked) [compound 822, Clidinium bromide], for which the “hTLR9 (inhibitory effect, antagonist score)” value is 12 (compounds for which there was clear down regulation at 5 μg/ml and 50 μg/ml).

`Clc1ccc(C(c2ccccc2Cl)C(Cl)Cl)cc1` (centres unmarked) [compound 833, Mitotane]: the “hTLR9 (inhibitory effect, antagonist score)” value is 12 (compounds for which there was clear down regulation at 5 μg/ml and 50 μg/ml).

Regarding `CCN(CC)C(C)CN1c2ccccc2Sc2ccccc21.Cl` (centres unmarked) [compound 840, Ethopropazinehydrochloride], the “hTLR9 (inhibitory effect, antagonist score)” value is listed as 11 (compounds for which there was clear down regulation only at 50 μg/ml).

For `CC(CN(C)C)CN1c2ccccc2Sc2ccccc21.CC(CN(C)C)CN1c2ccccc2Sc2ccccc21.O=C(O)C(O)C(O)C(=O)O` (centres unmarked) [compound 842, Trimeprazine tartrate], the “hTLR9 (inhibitory effect, antagonist score)” value was “— (compounds for which there was no clear down regulation even at 50 μg/ml)”.

For `COC(=O)[C@H]1[C@H]2C[C@@H]3c4[nH]c5cc(OC)ccc5c4CCN3C[C@H]2C[C@@H](OC(=O)c2cc(OC)c(OC)c(OC)c2)[C@@H]1OC` [compound 875, Reserpine], the “hTLR9 (inhibitory effect, antagonist score)” value is 12 (compounds for which there was clear down regulation at 5 μg/ml and 50 μg/ml).

With `OCc1cc2c(cn1)[nH]c1ccccc12` [compound 878, 3-hydroxymethyl-beta-carboline], the “hTLR9 (inhibitory effect, antagonist score)” value was 12 (compounds for which there was clear down regulation at 5 μg/ml and 50 μg/ml).

Regarding `O=C(O)c1cc(C(c2ccc(O)c(C(=O)O)c2)C(Cl)(Cl)Cl)ccc1O` [compound 884], the “hTLR9 (inhibitory effect, antagonist score)” value was “— (compounds for which there was no clear down regulation even at 50 μg/ml)”.

In the case of `CN(CCO)C(=O)c1cccc2c1-c1ccccc1C2=O` [compound 890], the “hTLR9 (inhibitory effect, antagonist score)” value is recorded as “— (compounds for which there was no clear down regulation even at 50 μg/ml)”.

As for `COC(=O)c1cccc2c1-c1ccccc1/C2=N/O` [compound 904], the “hTLR9 (inhibitory effect, antagonist score)” value was 13 (compounds for which there was clear down regulation at 0.5 μg/ml, 5 μg/ml, and 50 μg/ml).

On to `O=C(O)c1ccccc1NC1CC=CC2=C1C(=O)c1ccccc1C2=O` (centres unmarked) [compound 917], for which the “hTLR9 (inhibitory effect, antagonist score)” value is listed as “— (compounds for which there was no clear down regulation even at 50 μg/ml)”.
